According to patent US9018258B2, “Substituted 1-benzylcycloalkylcarboxylic acids and the use thereof” (Bayer Intellectual Property GmbH, priority 2010, dated 2015):

Molecular target: T1, sGC (Rattus norvegicus, UniProt P20595)
T1 construct: expressed in transfected cells; host or cells: CHO reporter cell
Experiment: Action at a recombinant guanylate cyclase reporter cell line (CHO reporter cell)
Format: cell-based
Conditions: CHO reporter cell in vitro
Method: The cellular action of the compounds according to the invention is determined at a recombinant guanylate cyclase reporter cell line, as described in F. Wunder et al., Anal. Biochem. 339, 104-112 (2005).

T1 sequence (P19686 whole entry partner): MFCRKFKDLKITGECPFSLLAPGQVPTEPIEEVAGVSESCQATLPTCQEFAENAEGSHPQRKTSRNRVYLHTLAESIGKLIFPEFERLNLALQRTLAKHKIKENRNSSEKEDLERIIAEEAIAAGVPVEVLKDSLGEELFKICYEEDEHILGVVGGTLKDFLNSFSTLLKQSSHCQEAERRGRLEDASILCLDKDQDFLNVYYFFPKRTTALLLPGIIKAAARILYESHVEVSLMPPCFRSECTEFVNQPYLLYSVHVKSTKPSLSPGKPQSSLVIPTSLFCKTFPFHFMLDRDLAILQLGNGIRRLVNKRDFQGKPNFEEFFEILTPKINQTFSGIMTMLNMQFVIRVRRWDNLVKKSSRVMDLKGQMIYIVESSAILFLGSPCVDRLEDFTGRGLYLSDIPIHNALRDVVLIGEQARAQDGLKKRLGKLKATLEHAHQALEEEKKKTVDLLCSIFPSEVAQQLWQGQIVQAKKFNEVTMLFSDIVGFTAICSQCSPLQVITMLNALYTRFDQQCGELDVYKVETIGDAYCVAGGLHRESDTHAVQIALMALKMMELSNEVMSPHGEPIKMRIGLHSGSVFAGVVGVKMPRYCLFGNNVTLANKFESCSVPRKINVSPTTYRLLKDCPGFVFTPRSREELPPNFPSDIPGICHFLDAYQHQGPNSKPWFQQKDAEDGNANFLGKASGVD
T1 sequence (P20595 whole entry): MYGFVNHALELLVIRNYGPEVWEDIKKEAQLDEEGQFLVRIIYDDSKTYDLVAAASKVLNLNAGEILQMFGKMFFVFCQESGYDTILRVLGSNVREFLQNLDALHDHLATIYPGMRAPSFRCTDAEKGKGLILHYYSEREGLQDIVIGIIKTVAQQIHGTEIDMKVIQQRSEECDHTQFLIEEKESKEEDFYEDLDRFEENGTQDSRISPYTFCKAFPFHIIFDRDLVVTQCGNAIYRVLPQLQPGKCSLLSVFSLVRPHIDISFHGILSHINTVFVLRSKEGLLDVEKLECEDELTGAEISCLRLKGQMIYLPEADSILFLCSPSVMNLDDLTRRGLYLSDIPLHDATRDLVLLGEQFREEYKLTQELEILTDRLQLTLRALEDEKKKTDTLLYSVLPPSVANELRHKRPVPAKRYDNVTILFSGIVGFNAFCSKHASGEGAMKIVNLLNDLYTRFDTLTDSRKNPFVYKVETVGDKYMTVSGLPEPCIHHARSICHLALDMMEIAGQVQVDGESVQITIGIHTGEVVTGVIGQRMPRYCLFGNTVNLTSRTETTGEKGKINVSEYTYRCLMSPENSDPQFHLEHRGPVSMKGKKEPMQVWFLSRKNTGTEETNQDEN

Compound	MEC (minimum effective concentration), sGC-activating activity in the CHO reporter cell
O=C(Nc1cc(CC2(C(=O)O)CC2)ccc1F)C(c1ccc(Cl)cc1)C1CCC(F)(F)C1 (single isomer, unassigned) [Example 78, 1-(3-{[(4-Chlorophenyl)(3,3-difluorocyclopentyl)acetyl]amino}-4-fluorobenzyl)cyclopropanecarboxylic acid]	3 nM
O=C(Nc1cc(CC2(C(=O)O)CC2)ccc1F)C(c1ccc(Cl)cc1F)C1CCCC1 (racemic) [Example 11, (+/−)-1-(3-{[(4-chloro-2-fluorophenyl)(cyclo-pentyl)acetyl]amino}-4-fluorobenzyl)-cyclopropanecarboxylic acid]	1 nM
C=Cc1ccc(C(C(=O)Nc2cccc(CC3(C(=O)O)CC3)c2)C2CCCC2)cc1 (racemic) [Example 13, (+/−)-1-(3-{[cyclopentyl(4-vinylphenyl)acetyl]-amino}benzyl)cyclopropanecarboxylic acid]	30 nM
O=C(Nc1cc(CC2(C(=O)O)CC2)ccc1F)[C@H](c1ccc(Cl)cc1)C1CCCC1(F)F (single isomer, unassigned; (+)) [Example 67]	3 nM
CC(C(C(=O)Nc1cccc(CC2(C(=O)O)CC2)c1)c1ccc(Cl)cc1)C(F)(F)F (single isomer, unassigned) [Example 84, 1-(3-{[2-(4-Chlorophenyl)-4,4,4-trifluoro-3-methylbutanoyl]amino}benzyl)cyclopropane-carboxylic acid]	20 nM
O=C(Nc1cc(CC2(C(=O)O)CC2)ccc1F)C(c1ccc(Cl)cc1)C1CCCC1 (racemic) [Example 8, (+/−)-1-(3-{[(4-chlorophenyl)(cyclopentyl)acetyl]-amino}-4-fluorobenzyl)cyclopropanecarboxylic acid]	3 nM
C[C@H]([C@H](C(=O)Nc1cc(CC2(C(=O)O)CC2)ccc1F)c1ccc(F)cc1)C(F)(F)F [Example 22, (+)-1-(4-fluoro-3-{[(2S,3R)-4,4,4-trifluoro-2-(4-fluorophenyl)-3-methylbutanoyl]amino}-benzyl)cyclopropanecarboxylic acid]	10 nM
C[C@H]([C@H](C(=O)Nc1ccc(Cl)c(CC2(C(=O)O)CC2)c1F)c1ccc(Cl)cc1)C(F)(F)F [Example 28, 1-(6-chloro-3-{[(2S,3R)-2-(4-chlorophenyl)-4,4,4-trifluoro-3-methylbutanoyl]amino}-2-fluorobenzyl)cyclopropanecarboxylic acid]	3 nM
CC(C(C(=O)Nc1cccc(CC2(C(=O)O)CC2)c1)c1ccc(C(F)(F)F)cc1)C(F)(F)F (single isomer, unassigned) [Example 80, 1-[3-({4,4,4-Trifluoro-3-methyl-2-[4-(trifluoromethyl)phenyl]butanoyl}amino)benzyl]cyclo-propanecarboxylic acid]	3 nM
C[C@H]([C@H](C(=O)Nc1cc(C(O)C2(C(=O)O)CC2)ccc1Cl)c1ccc(Cl)cc1)C(F)(F)F (single isomer, unassigned) [Example 104]	20 nM
O=C(Nc1cc(CC2(C(=O)O)CC2)ccc1F)C(c1ccc(Cl)cc1)C1CCC(F)(F)C1 (stereo not drawn) [Example 34, 1-(3-{[(4-chlorophenyl)(3,3-difluorocyclopentyl)-acetyl]amino}-4-fluorobenzyl)cyclopropane-carboxylic acid]	10 nM
Cc1cc(C(C(=O)Nc2cccc(CC3(C(=O)O)CC3)c2)C(C)C(F)(F)F)ccc1Cl (stereo not drawn) [Example 49, 1-(3-{[2-(4-chloro-3-methylphenyl)-4,4,4-trifluoro-3-methylbutanoyl]amino}benzyl)-cyclopropanecarboxylic acid]	30 nM
